# Measured values taken from patent publication US20220162169A1, “6-OXO-1,6-DIHYDROPYRIDAZINE PRODRUG DERIVATIVE, PREPARATION METHOD THEREFOR, AND APPLICATION THEREOF IN MEDICINE” (JIANGSU HENGRUI MEDICINE CO., LTD., priority 2019, published 2022).
# Legend:
# [1] = Pharmacokinetics assay in SD rats after intragastric administration, plasma LC/MS/MS; format: in vivo; conditions: for Detection of the administered prodrug compound itself in rat plasma: after intragastric administration, LC/MS/MS; for In vivo conversion of the prodrug into its metabolite: intragastric administration
# Method: Test Example 2. Pharmacokinetics Assay of the Compounds of the Present Disclosure in Rats
# SD rats were used as test animals. The drug concentration in plasma at different time points was determined by LC/MS/MS method after oral administration of the compounds of Example 2, Example 6 and Example 7 to SD rats. The pharmacokinetic behavior of the compounds of the present disclosure was studied and evaluated in SD rats.
# Forty SD rats (half male and half female, equally divided into ten groups) were purchased from Shanghai Jiesijie Laboratory Animal Co., LTD. (Certificate No.: SCXK(Shanghai) 2013-0006).
# An appropriate amount of the compound of Example 2 was weighed, followed by the addition of 5% of DMSO, 5% of tween 80 and 90% of normal saline successively to obtain a colorless, clear and transparent solution.
# An appropriate amount of the compound of Example 2 was weighed, followed by the addition of 0.5% sodium carboxymethyl cellulose (containing 0.5% tween 80) to obtain a white homogeneous suspension.
# An appropriate amount of the compound of Example 6 was weighed, and added to 200 mM (5% PVPK30+5% TPGS) Na2HPO4 solution (pH=9) to obtain a homogeneous suspension.
# An appropriate amount of the compound of Example 7 was weighed, and added to 200 mM (5% PVPK30+5% TPGS) Na2HPO4 solution (pH=9) to obtain a homogeneous suspension.
# After an overnight fast, the SD rats were intragastrically administered the test compounds. Regarding to the compound of Example 2 (formulation: 5% of DMSO, 5% of tween 80 and 90% of normal saline), the administration dose was 2 mg/kg, the administration volume was 10 mL/kg, and the administration concentration was 0.2 mg/mL. Regarding to the compound of Example 2 (formulation: 0.5% sodium carboxymethyl cellulose (containing 0.5% tween 80)), the administration dose was 10, 30, 100 mg/kg, the administration volume was 10 mL/kg, and the administration concentration was 1, 3, 10 mg/mL. Regarding to the compound of Example 6, the administration dose was 100, 300, 900 mg/kg, the administration volume was 10 mL/kg, and the administration concentration was 10, 30, 90 mg/mL. Regarding to the compound of Example 7, the administration dose was 10, 30, 100 mg/kg, the administration volume was 10 mL/kg, and the administration concentration was 1, 3, 10 mg/mL.
# After an overnight fast, the SD rats were intragastrically administered the test compounds. 0.2 ml of blood was taken from the orbit before the administration and at 0.5, 1.0, 2.0, 4.0, 6.0, 8.0, 11.0 and 24.0 hours after the administration. The samples were stored in heparinized tubes, and centrifuged for 10 minutes at 3500 rpm to separate the blood plasma. The plasma samples were stored at −20° C. The SD rats were fed 2 hours after the administration.
# The content of the test compound in the plasma of SD rats after administration of the test compound at different concentrations was determined: 25 μL of SD rat plasma at each time point after the administration was taken, followed by the addition of 50 μL of the internal standard camptothecin solution (100 ng/mL) and 200 μL of acetonitrile. The resulting solution was vortex-mixed for 5 minutes, and centrifuged for 10 minutes (3700 rpm). 3.0 μL of the supernatant was taken from the plasma samples of the compound of Example 2 (the group at the administration dose of 2 mg/kg) for LC/MS/MS analysis. 2.0 μL of the supernatant was taken from the plasma samples of the compound of Example 2 (the group at the administration dose of 10, 30, or 100 mg/kg) for LC/MS/MS analysis. 0.2 μL of the supernatant was taken from the plasma samples of the compound of Example 6 for LC/MS/MS analysis. 1 μL of the supernatant was taken from the plasma samples of the compound of Example 7 for LC/MS/MS analysis. […]
# [2] = biological target: T1, NaV1.8 ion channel (Homo sapiens, UniProt Q9Y5Y9); assay: Manual patch clamp, inhibitory activity on NaV1.8 stably expressed on HEK293 cells; format: cell-based; conditions: HEK293 cells stably expressing NaV1.8, manual patch clamp, resting protocol (clamped at -80 mV, depolarized to 10 mV), 1 μM TTX; read-out: IC50 on inhibiting the Nav1.8 channel activity
# T1 construct: expressed in transfected cells
# T1 sequence (Q9Y5Y9 whole entry): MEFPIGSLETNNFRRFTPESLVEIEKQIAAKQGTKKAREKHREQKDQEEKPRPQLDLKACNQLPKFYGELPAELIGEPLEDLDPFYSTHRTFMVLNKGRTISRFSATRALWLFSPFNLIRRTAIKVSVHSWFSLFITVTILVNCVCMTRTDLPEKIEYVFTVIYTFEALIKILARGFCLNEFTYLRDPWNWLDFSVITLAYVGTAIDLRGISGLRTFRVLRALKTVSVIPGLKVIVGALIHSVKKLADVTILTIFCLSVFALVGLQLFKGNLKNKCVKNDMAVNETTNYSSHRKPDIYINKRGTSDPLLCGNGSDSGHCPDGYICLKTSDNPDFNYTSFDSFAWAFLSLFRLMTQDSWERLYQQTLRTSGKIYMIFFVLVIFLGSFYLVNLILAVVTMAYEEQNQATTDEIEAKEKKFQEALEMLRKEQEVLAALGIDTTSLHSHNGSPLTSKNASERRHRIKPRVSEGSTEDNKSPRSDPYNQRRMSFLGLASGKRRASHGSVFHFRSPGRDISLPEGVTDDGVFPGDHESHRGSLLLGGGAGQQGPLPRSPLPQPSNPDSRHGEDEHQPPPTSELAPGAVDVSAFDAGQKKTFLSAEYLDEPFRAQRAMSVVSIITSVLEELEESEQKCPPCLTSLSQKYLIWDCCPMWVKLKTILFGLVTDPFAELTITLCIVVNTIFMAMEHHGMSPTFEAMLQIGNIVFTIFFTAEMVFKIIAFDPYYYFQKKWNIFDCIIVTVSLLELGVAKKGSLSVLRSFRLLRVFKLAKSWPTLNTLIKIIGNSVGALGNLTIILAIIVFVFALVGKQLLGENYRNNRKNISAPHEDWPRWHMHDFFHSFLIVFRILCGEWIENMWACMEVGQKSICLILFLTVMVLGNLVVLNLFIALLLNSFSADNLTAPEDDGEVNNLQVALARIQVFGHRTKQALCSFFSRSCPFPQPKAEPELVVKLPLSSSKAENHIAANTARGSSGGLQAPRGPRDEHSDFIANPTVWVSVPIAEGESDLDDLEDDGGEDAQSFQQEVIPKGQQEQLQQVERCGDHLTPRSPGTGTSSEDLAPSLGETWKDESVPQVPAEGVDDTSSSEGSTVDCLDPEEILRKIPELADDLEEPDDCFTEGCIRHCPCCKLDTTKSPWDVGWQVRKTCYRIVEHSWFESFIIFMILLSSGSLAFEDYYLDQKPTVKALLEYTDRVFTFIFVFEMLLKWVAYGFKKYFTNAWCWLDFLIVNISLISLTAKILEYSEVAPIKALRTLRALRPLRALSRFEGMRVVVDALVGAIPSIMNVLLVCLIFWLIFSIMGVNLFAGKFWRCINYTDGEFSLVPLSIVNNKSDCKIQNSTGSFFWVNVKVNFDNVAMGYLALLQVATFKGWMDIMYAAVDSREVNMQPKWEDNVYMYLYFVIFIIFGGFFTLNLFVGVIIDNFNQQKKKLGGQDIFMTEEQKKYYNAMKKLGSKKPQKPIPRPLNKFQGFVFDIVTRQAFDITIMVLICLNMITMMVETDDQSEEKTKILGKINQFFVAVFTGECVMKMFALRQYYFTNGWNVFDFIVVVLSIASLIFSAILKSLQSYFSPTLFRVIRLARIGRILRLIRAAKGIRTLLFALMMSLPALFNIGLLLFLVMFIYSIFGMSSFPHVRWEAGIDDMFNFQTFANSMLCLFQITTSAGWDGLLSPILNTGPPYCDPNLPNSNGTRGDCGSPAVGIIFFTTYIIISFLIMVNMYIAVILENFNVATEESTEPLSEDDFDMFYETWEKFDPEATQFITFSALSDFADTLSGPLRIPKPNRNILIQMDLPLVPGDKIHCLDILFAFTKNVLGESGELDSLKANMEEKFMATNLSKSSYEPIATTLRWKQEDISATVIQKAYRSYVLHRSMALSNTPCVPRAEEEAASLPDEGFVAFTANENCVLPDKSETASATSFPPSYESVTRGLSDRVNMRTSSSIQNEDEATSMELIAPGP
# Text: Test Example 3. Determination of the Inhibitory Activity of the Compounds of the Present Disclosure on NaV1.8
# The purpose of the experiment is to investigate the effect of the compounds on NaV1.8 ion channel in an in vitro experiment, wherein the NaV1.8 ion channel is stably expressed on HEK293 cells. After the NaV1.8 current becomes stable, the NaV1.8 currents before and after the administration of the compound are compared so as to obtain the effect of the compound on the NaV1.8 ion channel.
# Except for NaOH and KOH used for acid titration and base titration, all the compounds used for formulating the extracellular fluid and intracellular fluid were purchased from Sigma (St. Louis, Mo.). Extracellular fluid (mM): NaCl, 137; KCl, 4; CaCl2, 1.8; MgCl2, 1; HEPES, 10; glucose, 10; pH 7.4 (NaOH titration). Intracellular fluid (mM): aspartic acid, 140; MgCl2, 2; EGTA, 11; HEPES, 10; pH 7.2 (CsOH titration). All solutions of test compound and control compound contained 1 μM TTX.
# The test compound was dissolved in dimethyl sulfoxide (DMSO) at a stock concentration of 9 mM. The stock solution of the test compound was dissolved in the extracellular fluid on the day of the test and formulated into the required concentration.
# 1) The compound was formulated into solutions with specified concentrations, the solutions were added to the pipelines respectively in order from low to high concentration, and the pipelines were marked.
# 2) The cell was transferred to the perfusion tank. A positive pressure was applied to the electrode. The tip of the electrode touched the cell. The three-way valve of the air extracting device was adjusted to a three-way state. […]
# The cell was clamped at −80 mV. […] The maximum current caused by the square wave was measured. […] After the response became stable, the blocking intensity was calculated. […]
# The inhibitory activity of the compounds of the present disclosure on NaV1.8 was determined by the above test, and the resulting IC50 values are shown in Table 3.
# [3] = Solubility in PBS solution (pH 7.4) at room temperature; format: physicochemical; conditions: PBS solution (pH 7.4), aqueous buffer, kinetic from dmso stock; PBS pH 7.4, room temperature, 24 hours shaking, 1% DMSO, average of two measurements; read-out: Solubility in PBS pH7.4
# Method: Test Example 1. Solubility of the Compound of the Present Disclosure in PBS Solution (pH 7.4) at Room Temperature
# 2.1 Formulation of the PBS solution (pH 7.4): 0.57 g of NaH2PO42.H2O, 5.55 g of Na2HPO4.12H2O and 6.48 g of NaCl were weighed, followed by the addition of ultra-pure water. The pH was adjusted to 7.4±0.05 with 1 M NaOH or 1 M HCl. Water was added until the volume reached 1 L. The PBS solution was stored in a refrigerator at 4° C. (the storage life was 6 months).
# 2.2 Formulation of the solution of the compound in PBS 7.4: An appropriate amount of the test compound was weighed, and dissolved in DMSO or a mixed solution of DMSO:acetonitrile:ethanol (1:1:1) to obtain a 10 mM stock solution of the test compound. 10 μL of the stock solution of the test compound and 990 μL of the PBS solution (pH 7.4) were precisely measured and placed in a 2 mL sample vial and mixed well, and the DMSO concentration of the final solution was 1% (v/v). This solution was formulated in duplicate, shaken on a plate bed at room temperature for 24 hours, and centrifuged at 5000 rpm for 20 minutes. The supernatant was analyzed by the liquid chromatograph.
# 2.3 Formulation of the reference solution: 10 μL of the stock solution of the test sample (concentration: 10 mM, dissolved in DMSO) and 990 μL of an organic mixed solvent (usually DMSO:acetonitrile:ethanol=1:1:1) were precisely measured and placed in a 2 mL sample vial, and mixed well to obtain a clear 100 μM sample solution. The solution was filtered through a 0.45 μm organic phase microporous filter membrane, and the filtrate was analyzed by the liquid chromatograph.
# Solubility (μM)=peak area of the sample/peak area of the reference*concentration of the reference (μM)*sample solution dilution factor
# The average of two measurements was used as the final solubility.
SMILES,Detection of the administered prodrug compound itself in rat plasma [1],In vivo conversion of the prodrug into its metabolite [1],IC50 [2],solubility at 24 h [3]
"[2H]C([2H])([2H])Oc1cc(F)ccc1Oc1cc(C(F)(F)F)c(Cl)cc1C(=O)Nc1cnn(COC(=O)CCC(=O)O)c(=O)c1 [Example 7, 4-((4-(5-Chloro-2-(4-fluoro-2-(methoxy-d3)phenoxy)-4-(trifluoromethyl)benzamido)-6-oxopyridazin-1(6H)-yl)methoxy)-4-oxobutanoic acid]",not detected,converted into compound 7d in vivo,14.5 nM,34.5 µM
"Cc1cc(F)ccc1Oc1cc(C(F)(F)F)c(Cl)cc1C(=O)Nc1cnn(COC(=O)CCC(=O)O)c(=O)c1 [Example 2, 4-((4-(5-Chloro-2-(4-fluoro-2-methylphenoxy)-4-(trifluoromethyl)benzamido)-6-oxopyridazin-1(6H)-yl)methoxy)-4-oxobutanoic acid]",not detected,converted into compound 1h in vivo,37.6 nM,57.4 µM
"COc1cc(F)ccc1Oc1cc(C(F)(F)F)c(Cl)cc1C(=O)Nc1cnn(COC(=O)CCC(=O)O)c(=O)c1 [Example 6, 4-((4-(5-Chloro-2-(4-fluoro-2-methoxyphenoxy)-4-(trifluoromethyl)benzamido)-6-oxopyridazin-1(6H)-yl)methoxy)-4-oxobutanoic acid]",not detected,converted into compound 6c in vivo,3.9 nM,44.9 µM
